Results on five molecules are retold here after patent EP0525063B1, “Use of specific fatty acids in the manufacture of a medicament for their Iontophoresis delivery” (priority 1990, dated 1991).

Each structure is given as a SMILES string. Where “and” joins values, the source holds several entries; their conditions need not be identical. Equal values may be shown once. Where a name gives a salt, the structure may show the parent alone. Read-outs that look alike come from different tables or passages of the source.

How the values of data set [1] were obtained: (§1) Either pig skin or human cadaver skin was used. It was placed in the cell dermal side down.
(§2) The receptor solution completely filled the receptor compartment.
(§3) All skin was stored frozen.
(§4) Each experiment consisted of three phases totaling 66 hours. […]
(§5) The injection volume was 10 »l.

Data set [2] can be described thus: Iontophoretic drug delivery through skin in vertical flow-through diffusion cell, HPLC of receptor solution (human skin). Type of data set: in vitro ADME. The conditions noted are these: oxymorphone, 0 mg/ml oleic acid (control). Here is the method:
as §1, §2, §3, §4, §5
Tests with enhancer may be compared to the control delivery rate with no oleic acid and using human skin. Tests summarized in Table 4 were done using oxymorphone in the donor compartment.

This is another data set of the same source.
Where [3] appears, read: delivery of HM-HCl 0.1M, enhancer 100 mg/ml (10.0%), E/W 60/40, current 1 mA.

For the molecule `CCCCCCCCCC(=O)O` [Capric acid, decanoic acid], the “Enhancement Factor” value in data set [1] (setting [3]) stood at 3.9.

Take `CCCCCCCCCCCC(=O)O` [Lauric acid, dodecanoic acid]: in data set [1], the “Steady State Delivery Rate ± sd” value stood at 4838 ± 766 µg/h. For the same molecule, the “Enhancement Factor” value in data set [1] (setting [3]) was 4.0.

For `CN1CC[C@]23c4c5ccc(O)c4O[C@H]2C(=O)CC[C@@]3(O)[C@H]1C5` [Oxy-HCl, oxymorphone hydrochloride], the “Steady State Delivery Rate ± sd” value in data set [1] (Oxy-HCl 0.1M, no enhancer, E/W 67/33, current 1 mA) is 1202 ± 133 µg/h; in data set [2] (current 0 mA), 27 ± 25 µg/h; in data set [2] (current 0.25 mA), 228 ± 55 µg/h; in data set [2] (current 0.50 mA) it was 542 ± 62 µg/h; in data set [2] (current 0.75 mA) it was 910 ± 117 µg/h; in data set [2] (current 1.0 mA) it was 1024 ± 276 µg/h. Besides, in data set [1] (current of 1 mA, without the addition of a fatty acid, human skin or pig skin), the “typical iontophoretic steady state delivery rate” value is reported as “about 1200 »g/hr”.

In the case of `CCCCCCCC/C=C\CCCCCCCC(=O)O` [Oleic acid, cis-9-octadecenoic acid], the “Enhancement Factor” value in data set [1] (oleic acid 50 mg/ml (5%), solvent PG/E/W (30/45/20)) is on record as 4.3; the “Enhancement Factor” value in data set [1] (oleic acid 50 mg/ml (5%), solvent PG/E/W (65/20/10)) was determined as 2.5; the “Enhancement Factor” value (delivery of HM-HCl 0.1M, enhancer 10 mg/ml (1.0%), E/W 67/33, current 1 mA) worked out at 4.3; the “Enhancement Factor” value (delivery of Oxy-HCl 0.1M, enhancer 5 mg/ml (0.5%), E/W 67/33, current 1 mA, ratio of steady state rates with and without enhancer) was found to be 4.7; the “Enhancement Factor” value (delivery of oxymorphone-HCl, oleic acid 0.25 mg/ml (0.025%), E/W 48/52, 1 mA, pig skin) stood at 0; the “Enhancement Factor” value (delivery of oxymorphone-HCl, oleic acid 0.50 mg/ml (0.050%), E/W 48/52, 1 mA, pig skin) came out at 1.3. Also, the “Enhancement Factor” value runs as follows: (delivery of oxymorphone-HCl, oleic acid 1.0 mg/ml (0.10%), E/W 52/48, 1 mA, pig skin) 1.9; (delivery of oxymorphone-HCl, oleic acid 2.0 mg/ml (0.20%), E/W 56/44, 1 mA, pig skin) 3.2; (delivery of oxymorphone-HCl, oleic acid 2.5 mg/ml (0.25%), E/W 56/44, 1 mA, pig skin, two identical tests on different days) 4.2 and 4.5; (delivery of oxymorphone-HCl, oleic acid 5.0 mg/ml (0.50%), E/W 67/33, 1 mA, pig skin) 4.7. Moreover, the “steady state (phase II) delivery rate” value (Scheme B: 1% oleic acid + drug in passive phase I, phase II 0.1 M HM.HCl in DI W without enhancer, current on, pig skin) is 2163 ± 354 »g/hr. Also, the “delivery by the end of phase I” value (Scheme B: passive phase I (18 h, current off), 1% oleic acid + 0.1 M HM.HCl in E/W 67/33, pig skin) is recorded as “approximately 1800 »g/hr”.

Regarding `CCCCCCCC(=O)O` [Caprylic acid, octanoic acid], in data set [1] (delivery of HM-HCl 0.1M, enhancer 100 mg/ml (10.0%), E/W 48/52, current 1 mA), the “Enhancement Factor” value amounted to 3.6.
